Drawing on ChEMBL document CHEMBL1150224, “Antioxidant benzoylated flavan-3-ol glycoside from Celastrus orbiculatus” (J Nat Prod, 2001), this text covers IC50 for seven molecules.

One may read the IC50 as the concentration at which inhibition is half-maximal.

The experiment has as its system Radical scavenging activity. Kind of experiment: Antioxidant activity assessed as DPPH radical scavenging activity. Type of experiment: functional.

≈ marks a conversion by molar mass, not a printed value.

For the molecule `O=C(O[C@@H]1Cc2c(O[C@@H]3O[C@H](CO)[C@@H](O)[C@H](O)[C@H]3O)cc(O)cc2O[C@@H]1c1ccc(O)c(O)c1)c1ccccc1`, the IC50 was determined as 25 mg/L (≈ 44.9 µM).
Turning to `O=C(O[C@@H]1Cc2c(O)cc(O)cc2O[C@@H]1c1ccc(O)c(O)c1)c1ccccc1`, the IC50 turned out to be 17 mg/L (≈ 43.1 µM).
In the case of `Oc1cc(O)c2c(c1)O[C@H](c1ccc(O)c(O)c1)[C@H](O)C2` [(-)-EPICATECHIN], the IC50 was 8.5 mg/L (≈ 29.3 µM).
Turning to `COc1ccc(O)c(C(C)(C)C)c1.COc1ccc(O)cc1C(C)(C)C` [BUTYLATED HYDROXYANISOLE], the IC50 came to 4.5 mg/L.
The figure for `Oc1ccc([C@H]2Oc3cc(O)cc(O)c3C[C@H]2O)cc1` [EPIAFZELECHIN (2R,3R)(-)] is 7.5 mg/L (≈ 27.3 µM); for `O=C(O[C@@H]1Cc2c(O)cc(O)cc2O[C@@H]1c1cc(O)c(O)c(O)c1)c1cc(O)c(O)c(O)c1` [EPIGALOCATECHIN GALLATE] it is 5.6 mg/L (≈ 12.2 µM); for VITAMIN E it is 6.2 mg/L.
